Measurements reported in patent US20240199648A1, “MAP4K1 INHIBITORS” (Blueprint Medicines Corporation, priority 2021, published 2024).

Target: T1, MAP4K1 (HPK1) (Homo sapiens, UniProt Q92918)
T1 construct: purchased Invitrogen
Test: Inhibition of MAP4K1 biochemical enzymatic activity (EZReader 2 electrophoretic mobility shift assay)
Conditions: HPK1 (Invitrogen), S6K2tide 1.5 μM, 120 min; ATP 26 μM or 1000 μM (not stated which)
Source text: MAP4K1 (HPK1) and relevant off-target enzymatic activity was monitored using the Perkin Elmer electrophoretic mobility shift technology platform—the EZReader 2. […] Within the linear, steady-state phase of the kinase enzymatic reaction, the mixed pool of phosphorylated (product) and non-phosphorylated (substrate) peptides was passed through the microfluidic system of the PerkinElmer EZ Reader 2, under an applied electric potential difference. The presence of the phosphate group on the product peptide provided a difference in mass and charge between that of the substrate peptide, resulting in a separation of the substrate and product pools in the sample (Perrin et al. 2010). As the product and substrate peptide mixture passes the lasers within the instrument, these pools are detected (λex=488 nm, λem=568 nm) and resolved as separate peaks. The ratio between these peaks reflects the activity of the compound at that concentration, in that well, under those conditions.
Inhibitors were dissolved in 100% DMSO at a stock concentration of 10 mM. A 100×, 10-point, 4-fold serial dilution of each inhibitor was created in 100% DMSO either manually or on a Hamilton STAR liquid handler, starting at a relevant concentration, usually 1 mM. A volume of 0.130 μL of each concentration was transferred to the relevant wells of a 384-well plate (Greiner 781 201) in diplicate using a TTPLabtech Mosquito nano-litre dispenser. Using a Multidrop Combi, the remaining constituents of the kinase reaction were added to the 130 nL of dosed compound as follows (see table below for final reaction details):
Enzyme activity assays at the ^APPKM for ATP or 1 mM ATP: In each well of a 384-well plate, 0.1-15 nM of untreated enzyme was incubated in a total of 13 μL of buffer (100 mM HEPES pH 7.5, 0.015% Brij 35, 10 mM MgCl2, 1 mM DTT) with 1.5 μM fluorescent peptid and 20-1000 μM ATP, at 25° C., for 60-180 minutes in the presence or absence of a dosed concentration series of compound (1% DMSO final concentration). The kinase reactions were stopped by the addition of 70 μl of Stop buffer (100 mM HEPES pH 7.5, 0.015% Brij 35, 35 mM EDTA and 0.2% of Coating Reagent 3 (Caliper Lifesciences)). The plates were read on a Caliper EZReader 2 as described above.

T1 sequence (Q92918 whole entry): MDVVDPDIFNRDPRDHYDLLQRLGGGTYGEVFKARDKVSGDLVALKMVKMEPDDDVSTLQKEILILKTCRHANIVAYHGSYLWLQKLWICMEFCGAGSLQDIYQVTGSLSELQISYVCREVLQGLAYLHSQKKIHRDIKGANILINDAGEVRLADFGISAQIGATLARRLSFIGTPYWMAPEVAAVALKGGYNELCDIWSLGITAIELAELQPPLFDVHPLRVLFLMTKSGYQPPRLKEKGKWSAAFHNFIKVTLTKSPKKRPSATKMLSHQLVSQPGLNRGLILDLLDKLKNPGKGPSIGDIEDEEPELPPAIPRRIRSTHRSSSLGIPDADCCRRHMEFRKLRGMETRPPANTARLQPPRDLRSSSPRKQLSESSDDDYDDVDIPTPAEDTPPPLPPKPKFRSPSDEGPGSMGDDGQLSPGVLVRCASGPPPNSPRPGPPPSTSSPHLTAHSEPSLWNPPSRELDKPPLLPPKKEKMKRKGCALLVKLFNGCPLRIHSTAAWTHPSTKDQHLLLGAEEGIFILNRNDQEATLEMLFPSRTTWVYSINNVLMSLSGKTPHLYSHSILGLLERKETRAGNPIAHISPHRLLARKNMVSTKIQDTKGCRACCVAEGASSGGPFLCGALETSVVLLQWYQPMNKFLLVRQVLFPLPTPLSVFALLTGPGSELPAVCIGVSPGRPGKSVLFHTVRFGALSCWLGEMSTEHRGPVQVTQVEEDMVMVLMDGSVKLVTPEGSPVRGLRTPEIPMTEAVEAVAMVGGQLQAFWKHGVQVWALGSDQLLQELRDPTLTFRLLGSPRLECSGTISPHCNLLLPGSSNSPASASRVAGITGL

Structure (SMILES)	IC50
CC(=O)N1CC(Oc2ncc(C(C)(C)N)c3cc(Nc4ccc5c(n4)[C@H](C)COC5=O)ncc23)C1 (single isomer, unassigned) [Compound 17]	0.49 nM
CC(=O)N1CC(Oc2ncc(C(C)(C)N)c3cc(Nc4ccc5c(n4)[C@@H](C)COC5=O)ncc23)C1 (single isomer, unassigned) [Compound 18]	3.06 nM
CC[C@@H](N)c1cnc(OC2CN(C(=O)[C@@H]3C[C@@H]3F)C2)c2cnc(Nc3ccc4c(n3)[C@@H](C)[C@H](C)OC4=O)cc12 (single isomer, unassigned) [Compound 58]	0.75 nM
CO[C@@H](C)C(=O)N1CC(Oc2ncc(C(C)(C)N)c3cc(Nc4ccc5c(n4)[C@@H](C)C(C)(C)OC5=O)ncc23)C1 (single isomer, unassigned) [Compound 86]	0.27 nM
CO[C@H](C)C(=O)N1CC(Oc2ncc(C(C)(C)N)c3cc(Nc4ccc5c(n4)[C@@H](C)C(C)(C)OC5=O)ncc23)C1 (single isomer, unassigned) [Compound 88]	0.21 nM
C[C@@H]1c2nc(Nc3cc4c(C(C)(C)N)cnc(OC[C@@H]5C[C@H]5C(=O)N(C)C)c4cn3)ccc2C(=O)OC1(C)C (single isomer, unassigned) [Compound 104]	0.2 nM
C[C@@H]1c2nc(Nc3cc4c(C(C)(C)N)cnc(OC[C@H]5C[C@@H]5C(=O)N(C)C)c4cn3)ccc2C(=O)OC1(C)C (single isomer, unassigned) [Compound 105]	0.2 nM
C[C@@H]1c2nc(Nc3cc4c(C(C)(C)N)cnc(OC[C@H]5C[C@H]5C(=O)N(C)C)c4cn3)ccc2C(=O)OC1(C)C (single isomer, unassigned) [Compound 106]	0.39 nM
C[C@@H]1c2nc(Nc3cc4c(C(C)(C)N)cnc(OC[C@@H]5C[C@@H]5C(=O)N(C)C)c4cn3)ccc2C(=O)OC1(C)C (single isomer, unassigned) [Compound 107]	0.31 nM
CC[C@H](N)c1cnc(O[C@H]2C[C@@H](C(=O)N3CC(OC)C3)C2)c2cnc(Nc3ccc4c(n3)[C@@H](C)C(C)(C)OC4=O)cc12 (single isomer, unassigned) [Compound 126]	1.81 nM
CCC(=O)N1CC(Oc2ncc(C(C)(C)N)c3cc(Nc4ccc5c(n4)[C@@H](C)[C@H](C)OC5=O)ncc23)C1 [Compound 2]	0.38 nM
COC[C@@](C)(N)c1cnc(OC2CN(C(=O)C3CC3)C2)c2cnc(Nc3ccc4c(n3)[C@@H](C)C(C)(C)OC4=O)cc12 [Compound 16]	0.47 nM
CC[C@@](C)(N)c1cnc(OC2CN(C(C)=O)C2)c2cnc(Nc3ccc4c(n3)[C@@H](C)[C@H](C)OC4=O)cc12 [Compound 23]	0.32 nM
CC(=O)N1CC[C@@H](Oc2ncc(C(C)(C)N)c3cc(Nc4ccc5c(n4)[C@@H](C)[C@H](C)OC5=O)ncc23)C1 [Compound 24]	0.89 nM
CC(=O)N1CC[C@H](Oc2ncc(C(C)(C)N)c3cc(Nc4ccc5c(n4)[C@@H](C)[C@H](C)OC5=O)ncc23)C1 [Compound 25]	1.38 nM
CC(=O)N1CC(C)(Oc2ncc(C(C)(C)N)c3cc(Nc4ccc5c(n4)[C@@H](C)[C@H](C)OC5=O)ncc23)C1 [Compound 26]	0.31 nM
COC(=O)N1CC(Oc2ncc(C(C)(C)N)c3cc(Nc4ccc5c(n4)[C@@H](C)[C@H](C)OC5=O)ncc23)C1 [Compound 27]	0.3 nM
CC(=O)N(C)CCOc1ncc(C(C)(C)N)c2cc(Nc3ccc4c(n3)[C@@H](C)C(C)(C)OC4=O)ncc12 [Compound 28]	0.29 nM
CC(=O)N1CC(Oc2ncc(C(C)(C)N)c3cc(Nc4ccc5c(n4)C4(CC4)C(C)(C)OC5=O)ncc23)C1 [Compound 30]	0.2 nM
CC[C@@](C)(N)c1cnc(OC2CN(C(C)=O)C2)c2cnc(Nc3ccc4c(n3)[C@@H](C)C(C)(C)OC4=O)cc12 [Compound 32]	0.17 nM
COC(=O)N1CC[C@H](Oc2ncc(C(C)(C)N)c3cc(Nc4ccc5c(n4)[C@@H](C)[C@H](C)OC5=O)ncc23)C1 [Compound 35]	0.3 nM
COC(=O)N1CC[C@@H](Oc2ncc(C(C)(C)N)c3cc(Nc4ccc5c(n4)[C@@H](C)[C@H](C)OC5=O)ncc23)C1 [Compound 36]	0.65 nM
CCOC(=O)N1CC(Oc2ncc(C(C)(C)N)c3cc(Nc4ccc5c(n4)[C@@H](C)[C@H](C)OC5=O)ncc23)C1 [Compound 37]	0.15 nM
COC(=O)N1CC(Oc2ncc(C(C)(C)N)c3cc(Nc4ccc5c(n4)[C@@H](C)C(C)(C)OC5=O)ncc23)C1 [Compound 38]	0.23 nM
C[C@@H]1c2nc(Nc3cc4c(C(C)(C)N)ccc(OC5CN(C(=O)C6CC6)C5)c4cn3)ccc2C(=O)OC1(C)C [Compound 41]	0.1 nM

Structure (SMILES)	IC50
C[C@@H]1c2nc(Nc3cc4c(C(C)(C)N)cnc(NC5CN(C(=O)C6CC6)C5)c4cn3)ccc2C(=O)OC1(C)C [Compound 42]	0.33 nM
CCC(=O)N1CC(Oc2ncc(C(C)(C)N)c3cc(Nc4ccc5c(n4)C4(CC4)C(C)(C)OC5=O)ncc23)C1 [Compound 43]	0.22 nM
C[C@@H]1C[C@@H]1C(=O)N1CC(Oc2ncc(C(C)(C)N)c3cc(Nc4ccc5c(n4)[C@@H](C)[C@H](C)OC5=O)ncc23)C1 [Compound 44]	0.12 nM
C[C@@H]1OC(=O)c2ccc(Nc3cc4c(C(C)(C)N)cnc(O[C@@H]5CN(C(=O)C6CC6)[C@H]5C)c4cn3)nc2[C@H]1C [Compound 45]	0.16 nM
C[C@@H]1OC(=O)c2ccc(Nc3cc4c(C(C)(C)N)cnc(OC5CN(C(=O)[C@@H]6C[C@@H]6C)C5)c4cn3)nc2[C@H]1C [Compound 46]	0.23 nM
C[C@@H]1OC(=O)c2ccc(Nc3cc4c(C(C)(C)N)cnc(OC5CN(C(=O)[C@H]6C[C@@H]6C)C5)c4cn3)nc2[C@H]1C [Compound 47]	0.18 nM
C[C@@H]1OC(=O)c2ccc(Nc3cc4c(C(C)(C)N)cnc(O[C@H]5CCN(C(=O)C6CC6)C5)c4cn3)nc2[C@H]1C [Compound 50]	0.32 nM
C[C@@H]1OC(=O)c2ccc(Nc3cc4c(C(C)(C)N)cnc(O[C@@H]5CCN(C(=O)C6CC6)C5)c4cn3)nc2[C@H]1C [Compound 51]	0.36 nM
C[C@@H]1OC(=O)c2ccc(Nc3cc4c(C(C)(C)N)cnc(OC5CN(C(=O)C6(C)CC6)C5)c4cn3)nc2[C@H]1C [Compound 52]	0.18 nM
C[C@@H]1OC(=O)c2ccc(Nc3cc4c(C(C)(C)N)cnc(OC5CN(C(=O)C6(O)CC6)C5)c4cn3)nc2[C@H]1C [Compound 55]	0.16 nM
CC[C@H](N)c1cnc(OC2CN(C(=O)[C@@H]3C[C@@H]3F)C2)c2cnc(Nc3ccc4c(n3)[C@@H](C)[C@H](C)OC4=O)cc12 [Compound 59]	0.24 nM
C[C@@H]1OC(=O)c2ccc(Nc3cc4c(C(C)(C)N)cnc(OC5CN(C(=O)C6(F)CC6)C5)c4cn3)nc2[C@H]1C [Compound 60]	0.16 nM
COCC(=O)N1CC(Oc2ncc(C(C)(C)N)c3cc(Nc4ccc5c(n4)[C@@H](C)C(C)(C)OC5=O)ncc23)C1 [Compound 61]	0.21 nM
C[C@@H]1C[C@@H]1C(=O)N1CC(Oc2ncc(C(C)(C)N)c3cc(Nc4ccc5c(n4)[C@@H](C)C(C)(C)OC5=O)ncc23)C1 [Compound 64]	0.16 nM
C[C@@H]1C[C@H]1C(=O)N1CC(Oc2ncc(C(C)(C)N)c3cc(Nc4ccc5c(n4)[C@@H](C)C(C)(C)OC5=O)ncc23)C1 [Compound 66]	0.22 nM
C[C@@H]1c2nc(Nc3cc4c(C(C)(C)N)cnc(OC5CN(C(=O)[C@@H]6C[C@@H]6C)C5)c4cn3)ccc2C(=O)OC1(C)C [Compound 67]	0.2 nM
C[C@@H]1c2nc(Nc3cc4c(C(C)(C)N)cnc(OC5CN(C(=O)[C@H]6C[C@@H]6C)C5)c4cn3)ccc2C(=O)OC1(C)C [Compound 68]	0.16 nM
C[C@@H]1OC(=O)c2ccc(Nc3cc4c(C(C)(C)N)cnc(OC5CN(C(=O)[C@H]6CC6(C)C)C5)c4cn3)nc2[C@H]1C [Compound 69]	0.14 nM
C[C@@H]1c2nc(Nc3cc4c(C(C)(C)N)cnc(OC5CN(C(=O)C6(C)CC6)C5)c4cn3)ccc2C(=O)OC1(C)C [Compound 71]	0.27 nM
C[C@@H]1OC(=O)c2ccc(Nc3cc4c(C(C)(C)N)cnc(OC5CN(C(=O)[C@H]6CCOC6)C5)c4cn3)nc2[C@H]1C [Compound 73]	0.32 nM
C[C@@H]1OC(=O)c2ccc(Nc3cc4c(C(C)(C)N)cnc(OC5CN(C(=O)[C@@H]6CCOC6)C5)c4cn3)nc2[C@H]1C [Compound 74]	0.36 nM
C[C@@H]1OC(=O)c2ccc(Nc3cc4c(C(C)(C)N)cnc(OC5CN(C(=O)[C@H]6CCCO6)C5)c4cn3)nc2[C@H]1C [Compound 75]	0.38 nM
C[C@@H]1c2nc(Nc3cc4c(C(C)(C)N)cnc(OC5CN(C(=O)C6(O)CC6)C5)c4cn3)ccc2C(=O)OC1(C)C [Compound 78]	0.43 nM
COC1(C(=O)N2CC(Oc3ncc(C(C)(C)N)c4cc(Nc5ccc6c(n5)[C@@H](C)[C@H](C)OC6=O)ncc34)C2)CC1 [Compound 79]	0.31 nM
